Where “and” joins values, the source holds several entries; their conditions need not be identical. Equal values may be shown once. Read-outs that look alike come from different tables or passages of the source.
What was measured:
PfcProRS = molecular target: T1, PfcProRS (Plasmodium falciparum, UniProt Q8I5R7); format: binding; conditions: for dose-response signal (normalized), SI Fig 8: single replicates
T1 construct: made in house; host or cells: E. coli SoluBL-21

[1] = test system: halofuginone-induced P. falciparum (elevated proline homeostasis); assay: P. falciparum ABS growth assay, SYBR Green, 72 h, halofuginone-induced parasites; format: cell-based, Plasmodium falciparum; conditions: Halofuginone-Induced (HFG-Induced)
Outline: (§1)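 Growth inhibition of the resistant and induced Dd2 lines is measured over 72 h in triplicate dose-response, starting at 1% parasitemia and 1% hematocrit. SYBR Green 1 staining gives the fluorescence readout, normalized between 10 μM dihydroartemisinin and no-compound wells.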

HsProRS = HsProRS (Homo sapiens, UniProt P07814); assay: TR-FRET ligand displacement assay with tracer MAT379 (CoraFluor-1-Halo and anti-His6 antibody formats); format: binding; parameters: made in house; host or cells: E. coli SoluBL-21; conditions: for TR-FRET dose-response, normalized signal (SI Fig 11): individual replicates
[2] = test system: HFGR-I P. falciparum (elevated proline homeostasis and PfcProRS^L482H); assay: P. falciparum ABS growth assay, SYBR Green, 72 h, HFGR-I parasites; format: cell-based, Plasmodium falciparum; conditions: HFGR-I
Outline: as §1

P. falciparum Dd2-2D4 = assay: P. falciparum asexual blood stage (ABS) growth assay, SYBR Green, 72 h, wild-type parasites; format: cell-based, Plasmodium falciparum; conditions: for ABS growth dose-response, normalized signal (Replicates 1-3): Dd2-2D4

T1 sequence (Q8I5R7 249-746): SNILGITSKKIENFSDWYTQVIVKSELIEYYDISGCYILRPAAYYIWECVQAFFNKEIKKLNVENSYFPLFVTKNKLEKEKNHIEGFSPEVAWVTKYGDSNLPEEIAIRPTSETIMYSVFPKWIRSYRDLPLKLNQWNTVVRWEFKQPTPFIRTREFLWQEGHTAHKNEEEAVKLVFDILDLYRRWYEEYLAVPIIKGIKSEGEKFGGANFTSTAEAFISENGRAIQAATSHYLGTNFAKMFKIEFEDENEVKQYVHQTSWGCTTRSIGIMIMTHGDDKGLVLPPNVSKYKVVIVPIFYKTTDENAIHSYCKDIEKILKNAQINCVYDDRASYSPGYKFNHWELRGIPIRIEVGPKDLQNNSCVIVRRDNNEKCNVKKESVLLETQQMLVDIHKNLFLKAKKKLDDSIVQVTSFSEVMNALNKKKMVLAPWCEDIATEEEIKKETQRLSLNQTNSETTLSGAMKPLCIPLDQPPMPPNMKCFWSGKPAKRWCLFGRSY
Chain of HsProRS (P07814 996-1512): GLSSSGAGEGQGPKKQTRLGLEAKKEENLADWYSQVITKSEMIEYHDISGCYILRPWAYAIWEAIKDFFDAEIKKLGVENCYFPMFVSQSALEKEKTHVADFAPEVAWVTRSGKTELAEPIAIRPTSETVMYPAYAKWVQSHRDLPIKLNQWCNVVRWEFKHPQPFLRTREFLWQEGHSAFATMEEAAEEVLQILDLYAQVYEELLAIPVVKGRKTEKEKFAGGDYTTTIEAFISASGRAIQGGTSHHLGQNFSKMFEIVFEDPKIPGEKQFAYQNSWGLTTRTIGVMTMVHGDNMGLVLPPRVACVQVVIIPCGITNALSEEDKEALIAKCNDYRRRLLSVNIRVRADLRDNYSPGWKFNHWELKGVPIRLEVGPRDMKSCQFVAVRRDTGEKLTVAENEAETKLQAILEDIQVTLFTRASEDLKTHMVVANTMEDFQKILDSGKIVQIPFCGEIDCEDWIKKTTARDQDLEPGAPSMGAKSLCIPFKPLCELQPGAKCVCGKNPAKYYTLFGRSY

CC(C)(C)OC(=O)NC1CCN(C(=O)Nc2nccnc2C(=O)NC2Cc3ccccc3C2)CC1 [compound 7]
dose-response signal (normalized), SI Fig 8 (PfcProRS; Log[inhibitor] (M) -5.000): 9.23E-03 and -2.50E-03 and -6.65E-02
dose-response signal (normalized), SI Fig 8 (PfcProRS; Log[inhibitor] (M) -5.301): -5.43E-02 and 1.65E-02 and -1.76E-02
dose-response signal (normalized), SI Fig 8 (PfcProRS; Log[inhibitor] (M) -5.601): 6.03E-02 and 2.26E-02 and 5.28E-02
dose-response signal (normalized), SI Fig 8 (PfcProRS; Log[inhibitor] (M) -5.904): 2.65E-02 and 5.41E-02 and 9.36E-02
dose-response signal (normalized), SI Fig 8 (PfcProRS; Log[inhibitor] (M) -6.208): 2.38E-02 and 1.39E-01 and 9.30E-02
dose-response signal (normalized), SI Fig 8 (PfcProRS; Log[inhibitor] (M) -6.509): 2.08E-01 and 1.27E-01 and 1.08E-01
dose-response signal (normalized), SI Fig 8 (PfcProRS; Log[inhibitor] (M) -6.796): 2.54E-01 and 2.41E-01 and 3.20E-01
dose-response signal (normalized), SI Fig 8 (PfcProRS; Log[inhibitor] (M) -7.108): 4.18E-01 and 3.78E-01 and 4.14E-01
dose-response signal (normalized), SI Fig 8 (PfcProRS; Log[inhibitor] (M) -7.409): 5.88E-01 and 6.84E-01 and 5.75E-01
dose-response signal (normalized), SI Fig 8 (PfcProRS; Log[inhibitor] (M) -7.710): 7.68E-01 and 7.32E-01 and 7.90E-01
dose-response signal (normalized), SI Fig 8 (PfcProRS; Log[inhibitor] (M) -8.000): 9.75E-01 and 1.04E+00 and 8.35E-01
dose-response signal (normalized), SI Fig 8 (PfcProRS; Log[inhibitor] (M) -8.301): 9.24E-01 and 9.28E-01 and 8.42E-01
dose-response signal (normalized), SI Fig 8 (PfcProRS; Log[inhibitor] (M) -8.602): 1.04E+00 and 8.85E-01 and 9.51E-01
dose-response signal (normalized), SI Fig 8 (PfcProRS; Log[inhibitor] (M) -9.000): 1.00E+00 and 1.08E+00 and 9.49E-01
dose-response signal (normalized), SI Fig 8 (PfcProRS; Log[inhibitor] (M) -9.301): 9.78E-01 and 9.98E-01 and 9.79E-01
PfcProRS -- best Kd (PfcProRS; SI Fig 16a, values on -log scale): 7.883
Kd (PfcProRS; read-out: PfcProRS (KD [nM]) + proline): 13.2 nM
ABS growth dose-response, normalized signal (Replicates 1-3) ([1]; Log[inhibitor] (M) -5.000): 8 and 7 and 3
ABS growth dose-response, normalized signal (Replicates 1-3) ([1]; Log[inhibitor] (M) -5.301): 22 and 9 and 15
ABS growth dose-response, normalized signal (Replicates 1-3) ([1]; Log[inhibitor] (M) -5.602): 34 and 37 and 32
ABS growth dose-response, normalized signal (Replicates 1-3) ([1]; Log[inhibitor] (M) -5.903): 93 and 89 and 84
ABS growth dose-response, normalized signal (Replicates 1-3) ([1]; Log[inhibitor] (M) -6.204): 92 and 98 and 96
ABS growth dose-response, normalized signal (Replicates 1-3) ([1]; Log[inhibitor] (M) -6.505): 98 and 96 and 105
ABS growth dose-response, normalized signal (Replicates 1-3) ([1]; Log[inhibitor] (M) -6.806): 103 (2×) and 107
ABS growth dose-response, normalized signal (Replicates 1-3) ([1]; Log[inhibitor] (M) -7.107): 109 (2×) and 104
ABS growth dose-response, normalized signal (Replicates 1-3) ([1]; Log[inhibitor] (M) -7.408): 106 and 107 and 102
ABS growth dose-response, normalized signal (Replicates 1-3) ([1]; Log[inhibitor] (M) -7.709): 107 and 106 and 101
ABS growth dose-response, normalized signal (Replicates 1-3) ([1]; Log[inhibitor] (M) -8.010): 100 and 99 and 106
ABS growth dose-response, normalized signal (Replicates 1-3) ([1]; Log[inhibitor] (M) -8.311): 109 and 100 and 99
Kd (HsProRS; HsProRS (KD [nM]) + proline, 100 μM proline, 250 nM MAT379): 34.8 nM
Kd (HsProRS; HsProRS - best Kd, SI Fig 16a, values on -log scale): 22.1 nM
normalized TR-FRET ligand displacement signal, dose-response replicates (SI Fig 6) (HsProRS; Log[inhibitor] (M) -5.000): -1.10E-01 and -3.98E-02 and -5.51E-02
TR-FRET dose-response, normalized signal (SI Fig 11) (HsProRS; Log[inhibitor] (M) -5.000): 5.88E-02 and 4.63E-03 and 1.20E-02
normalized TR-FRET ligand displacement signal, dose-response replicates (SI Fig 6) (HsProRS; Log[inhibitor] (M) -5.301): -3.29E-02 and -2.98E-02 and -2.55E-02
TR-FRET dose-response, normalized signal (SI Fig 11) (HsProRS; Log[inhibitor] (M) -5.301): 8.22E-04 and 1.04E-02 and 2.94E-02
normalized TR-FRET ligand displacement signal, dose-response replicates (SI Fig 6) (HsProRS; Log[inhibitor] (M) -5.601): -4.70E-04 and 4.94E-02 and -1.17E-02
TR-FRET dose-response, normalized signal (SI Fig 11) (HsProRS; Log[inhibitor] (M) -5.601): 2.44E-02 and 7.65E-03 and 4.65E-02
normalized TR-FRET ligand displacement signal, dose-response replicates (SI Fig 6) (HsProRS; Log[inhibitor] (M) -5.904): -2.26E-02 and 7.29E-03 and -6.02E-02
TR-FRET dose-response, normalized signal (SI Fig 11) (HsProRS; Log[inhibitor] (M) -5.904): 5.49E-02 and 5.79E-02 and 5.68E-02
normalized TR-FRET ligand displacement signal, dose-response replicates (SI Fig 6) (HsProRS; Log[inhibitor] (M) -6.208): 5.82E-02 and 7.95E-02 and 2.06E-02
TR-FRET dose-response, normalized signal (SI Fig 11) (HsProRS; Log[inhibitor] (M) -6.208): 4.71E-02 and 4.91E-02 and 7.38E-02
normalized TR-FRET ligand displacement signal, dose-response replicates (SI Fig 6) (HsProRS; Log[inhibitor] (M) -6.509): 1.24E-02 and 1.36E-01 and 1.19E-01
TR-FRET dose-response, normalized signal (SI Fig 11) (HsProRS; Log[inhibitor] (M) -6.509): 1.27E-01 and 1.07E-01 and 8.54E-02
normalized TR-FRET ligand displacement signal, dose-response replicates (SI Fig 6) (HsProRS; Log[inhibitor] (M) -6.796): 2.14E-01 and 2.70E-01 and 2.50E-01
TR-FRET dose-response, normalized signal (SI Fig 11) (HsProRS; Log[inhibitor] (M) -6.796): 1.74E-01 and 1.79E-01 and 1.50E-01
normalized TR-FRET ligand displacement signal, dose-response replicates (SI Fig 6) (HsProRS; Log[inhibitor] (M) -7.108): 3.41E-01 and 3.62E-01 and 3.83E-01
TR-FRET dose-response, normalized signal (SI Fig 11) (HsProRS; Log[inhibitor] (M) -7.108): 2.66E-01 and 2.89E-01 and 3.00E-01
normalized TR-FRET ligand displacement signal, dose-response replicates (SI Fig 6) (HsProRS; Log[inhibitor] (M) -7.409): 5.14E-01 and 5.24E-01 and 5.91E-01
TR-FRET dose-response, normalized signal (SI Fig 11) (HsProRS; Log[inhibitor] (M) -7.409): 4.26E-01 and 3.87E-01 and 4.16E-01
normalized TR-FRET ligand displacement signal, dose-response replicates (SI Fig 6) (HsProRS; Log[inhibitor] (M) -7.710): 7.15E-01 and 7.22E-01 and 6.26E-01
TR-FRET dose-response, normalized signal (SI Fig 11) (HsProRS; Log[inhibitor] (M) -7.710): 5.82E-01 and 5.49E-01 and 5.55E-01
normalized TR-FRET ligand displacement signal, dose-response replicates (SI Fig 6) (HsProRS; Log[inhibitor] (M) -8.000): 9.10E-01 and 9.20E-01 and 8.83E-01
TR-FRET dose-response, normalized signal (SI Fig 11) (HsProRS; Log[inhibitor] (M) -8.000): 7.19E-01 and 6.97E-01 and 7.02E-01
normalized TR-FRET ligand displacement signal, dose-response replicates (SI Fig 6) (HsProRS; Log[inhibitor] (M) -8.301): 9.29E-01 and 8.45E-01 and 8.62E-01
TR-FRET dose-response, normalized signal (SI Fig 11) (HsProRS; Log[inhibitor] (M) -8.301): 8.41E-01 and 8.30E-01 and 7.96E-01
normalized TR-FRET ligand displacement signal, dose-response replicates (SI Fig 6) (HsProRS; Log[inhibitor] (M) -8.602): 1.00E+00 and 9.03E-01 and 8.98E-01
TR-FRET dose-response, normalized signal (SI Fig 11) (HsProRS; Log[inhibitor] (M) -8.602): 8.68E-01 and 8.38E-01 and 8.61E-01
normalized TR-FRET ligand displacement signal, dose-response replicates (SI Fig 6) (HsProRS; Log[inhibitor] (M) -9.000): 9.68E-01 and 8.42E-01 and 9.66E-01
TR-FRET dose-response, normalized signal (SI Fig 11) (HsProRS; Log[inhibitor] (M) -9.000): 9.12E-01 and 9.38E-01 and 9.42E-01
normalized TR-FRET ligand displacement signal, dose-response replicates (SI Fig 6) (HsProRS; Log[inhibitor] (M) -9.301): 9.89E-01 and 9.63E-01 and 1.01E+00
TR-FRET dose-response, normalized signal (SI Fig 11) (HsProRS; Log[inhibitor] (M) -9.301): 9.41E-01 and 9.42E-01 and 9.34E-01
ABS growth dose-response, normalized signal (Replicates 1-3) ([2]; Log[inhibitor] (M) -5.000): 7 (2×) and 6
ABS growth dose-response, normalized signal (Replicates 1-3) ([2]; Log[inhibitor] (M) -5.301): 18 and 21 and 24
ABS growth dose-response, normalized signal (Replicates 1-3) ([2]; Log[inhibitor] (M) -5.602): 51 and 50 and 48
ABS growth dose-response, normalized signal (Replicates 1-3) ([2]; Log[inhibitor] (M) -5.903): 103 and 100 and 102
ABS growth dose-response, normalized signal (Replicates 1-3) ([2]; Log[inhibitor] (M) -6.204): 99 and 103 and 101
ABS growth dose-response, normalized signal (Replicates 1-3) ([2]; Log[inhibitor] (M) -6.505): 106 and 103 and 101
ABS growth dose-response, normalized signal (Replicates 1-3) ([2]; Log[inhibitor] (M) -6.806): 100 and 103 and 108
ABS growth dose-response, normalized signal (Replicates 1-3) ([2]; Log[inhibitor] (M) -7.107): 110 and 105 and 104
ABS growth dose-response, normalized signal (Replicates 1-3) ([2]; Log[inhibitor] (M) -7.408): 103 and 110 and 105
ABS growth dose-response, normalized signal (Replicates 1-3) ([2]; Log[inhibitor] (M) -7.709): 107 and 102 and 105
ABS growth dose-response, normalized signal (Replicates 1-3) ([2]; Log[inhibitor] (M) -8.010): 102 and 103 and 101
ABS growth dose-response, normalized signal (Replicates 1-3) ([2]; Log[inhibitor] (M) -8.311): 104 (2×) and 102
ABS growth dose-response, normalized signal (Replicates 1-3) (P. falciparum Dd2-2D4; Log[inhibitor] (M) -5.000): 1
ABS growth dose-response, normalized signal (Replicates 1-3) (P. falciparum Dd2-2D4; Log[inhibitor] (M) -5.301): 1
ABS growth dose-response, normalized signal (Replicates 1-3) (P. falciparum Dd2-2D4; Log[inhibitor] (M) -5.602): 1
ABS growth dose-response, normalized signal (Replicates 1-3) (P. falciparum Dd2-2D4; Log[inhibitor] (M) -5.903): 1
ABS growth dose-response, normalized signal (Replicates 1-3) (P. falciparum Dd2-2D4; Log[inhibitor] (M) -6.505): 1
EC50 (P. falciparum Dd2-2D4; Plasmodium falciparum, DD2, SI Fig 16b, values on -log scale, read-out: ABS - Dd2-2D4 (converted)): 0.0906 µM

Reference: paper PMC9403976, “Elucidating the path to Plasmodium prolyl-tRNA synthetase inhibitors that overcome halofuginone resistance” (Nature Communications, 2022)
